Laboratory results as given in US7666867B2, “Heteroindanes: a new class of potent cannabimimetic ligands” (University of Connecticut, priority 2001, dated 2010).
Where two headings read alike, the source gives them in different places.

What was measured:
rats [1] = test: Locomotor activity, rate of beam crossings in photocell apparatus; format: in vivo, rat; conditions: intravenous; for effect on locomotor activity: early after administration, FIG. 3 and 4
Protocol: Rats were injected with varied doses of either some of the inventive compounds or with WIN 55212-2, a known CB1/CB2 receptor agonist. The injected compounds were solubilized in DMSO:40% cyclodextrin (1:10) and intravenously administered.
Locomotor activity was assessed by measuring the rate of beam crossings by rats in a photocell apparatus according to the procedure of M. Cosenza et al, Locomotor Activity and Occupancy of Brain Cannabinoid CB1 Receptors by the Antagonist/Inverse Agonist AM281, Synapse, 38, 477-482 (2000).

CB1 receptor = target: T1, CB1 receptor (Rattus norvegicus, UniProt P20272); test: CB1 receptor binding assay, [3H]CP-55,940 displacement, rat forebrain membranes
T1 construct: membranes were prepared from rat forebrain membranes; from tissue; host or cells: rat forebrain membranes
T1 sequence (P20272 whole entry): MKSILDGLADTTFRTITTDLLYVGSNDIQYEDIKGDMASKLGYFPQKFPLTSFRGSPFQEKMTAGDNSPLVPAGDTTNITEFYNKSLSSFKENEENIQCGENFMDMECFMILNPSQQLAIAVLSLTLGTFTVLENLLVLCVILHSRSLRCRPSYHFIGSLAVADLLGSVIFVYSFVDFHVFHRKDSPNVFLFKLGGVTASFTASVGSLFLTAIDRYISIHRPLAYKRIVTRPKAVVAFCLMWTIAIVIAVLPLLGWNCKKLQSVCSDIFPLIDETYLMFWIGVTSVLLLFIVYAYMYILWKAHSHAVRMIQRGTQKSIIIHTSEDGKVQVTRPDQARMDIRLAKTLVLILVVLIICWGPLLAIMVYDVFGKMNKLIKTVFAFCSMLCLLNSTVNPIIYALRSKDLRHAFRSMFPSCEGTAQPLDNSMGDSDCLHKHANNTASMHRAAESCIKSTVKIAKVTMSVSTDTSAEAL
Protocol: The inventive analogs were tested for CB2 receptor binding affinity and for CB1 receptor affinity (to determine selectivity for the CB2 receptor). As used herein, “binding affinity” is represented by the IC50 value which is the concentration of an analog required to occupy the 50% of the total number (Bmax) of the receptors. The lower the IC50 value the higher the binding affinity. […] For the CB1 receptor binding studies, membranes were prepared from rat forebrain membranes according to the procedure of P. R. Dodd et al, A Rapid Method for Preparing Synaptosomes: Comparison with Alternative Procedures, Brain Res., 107-118 (1981). The binding of the novel analogues to the CB1 cannabinold receptor was assessed as described in W. A. Devane et al, Determination and Characterization of a Cannabinoid Receptor in a Rat Brain, Mol. Pharmacol., 34, 605-613 (1988) and A. Charalambous et al, 5′-azido Δ^8− THC: A Novel Photoaffinity Label for the Cannabinoid Receptor, J. Med. Chem., 35, 3076-3079 (1992) with the following changes. The above articles are incorporated by reference herein.
Membranes, previously frozen at −80° C., were thawed on ice. To the stirred suspension was added three volumes of TME (25 mM Tris-HCl buffer, 5 mM MgCl2 and 1 mM EDTA) at a pH 7.4. The suspension was incubated at 4° C. for 30 min. At the end of the incubation, the membranes were pelleted and washed three times with TME.
(§1) The treated membranes were subsequently used in the binding assay described below. Approximately 30 μg of membranes were incubated in silanized 96-well microtiter plate with TME containing 0.1% essentially fatty acid-free bovine serum albumin (BSA), 0.8 nM [^3H] CP-55,940, and various concentrations of test materials in a final volume of […]. The assays were incubated for 1 hour at 30° C. and then immediately filtered using Packard Filtermate 196 harvester and Whatman GF/C filterplates and washed with wash buffer (TME) containing 0.5% BSA. Radioactivity was detected using MicroScint 20 scintillation cocktail added directly to the dried filterplates, and the filterplates were counted using a Packard Instruments Top-Count. Nonspecific binding was assessed using 100 nM CP-55,940. Data collected from three independent experiments performed with duplicate determinations was normalized between 100% and 0% specific binding for [^3H] CP-55,940, determined using buffer and 100 nM CP-55,940. The normalized data was analyzed using a 4-parameter nonlinear logistic equation to yield IC50 values. Data from at least two indeperident experiments performed in duplicate was used to calculate IC50 values which were converted to Ki values using the assumptions of Cheng et al, Relationship Between the Inhibition Constant (Ki) and the concentratiori of Inhibitor which causes 50% Inhibition (IC50) of an Enzymatic Reaction, Biochem. Pharmacol., 22, 3099-3102, (1973), which is incorporated by reference herein.

CB2 receptor = target: T2, CB2 receptor (Mus musculus, UniProt P47936); test: CB2 receptor binding assay, [3H]CP-55,940 displacement, mouse spleen membranes
T2 construct: membranes were prepared from frozen mouse spleen; from tissue; host or cells: frozen mouse spleen membranes
T2 sequence (P47936 whole entry): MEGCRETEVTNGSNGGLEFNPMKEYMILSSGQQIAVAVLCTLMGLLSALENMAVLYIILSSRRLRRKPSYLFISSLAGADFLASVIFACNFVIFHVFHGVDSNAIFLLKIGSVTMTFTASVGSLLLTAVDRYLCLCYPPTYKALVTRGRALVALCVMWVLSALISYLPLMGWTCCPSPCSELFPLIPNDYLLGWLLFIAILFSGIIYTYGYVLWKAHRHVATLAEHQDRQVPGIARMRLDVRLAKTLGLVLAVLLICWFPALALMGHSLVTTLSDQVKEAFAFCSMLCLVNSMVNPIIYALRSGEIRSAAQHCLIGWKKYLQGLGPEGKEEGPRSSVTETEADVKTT
Protocol: as §1
For the CB2 receptor binding studies, membranes were prepared from frozen mouse spleen essentially according to the procedure of P. R. Dodd et al, A Rapid Method for Preparing Synaptosomes: Comparison with Alternative Procedures, Brain Res., 226, 107-118 (1981) which is incorporated by reference herein. Silanized centrifuge tubes were used throughout to minimize receptor loss due to adsorption. The CB2 binding assay was conducted in the same manner as for the CB1 binding assay. The binding affinities (Ki) were also expressed in nanomoles (nM).

rats [2] = test: Peripheral antinociception, paw withdrawal latency to thermal stimulus; format: in vivo, rat; conditions: ipsilateral i.paw injection, measured 25 min after injection, FIG. 1 and 2
Protocol: Using rats as test subjects, varied doses of some of the inventive compounds were injected subcutaneously in the dorsal surface of the paw (i.paw, 50 μl). Measurements were taken 25 min after i.paw injection. Assessment of antinociceptive action was made by evaluating the response latency to removal of the paw from a focused source of thermal stimulation, as described by T. P. Malan Jr., CB2 Cannabinoid Receptor-mediated Peridpheral Antinociception, Pain, 93, 239-245 (2001), the content of which is incorporated by reference herein. Rats were allowed to acclimate within Plexiglas enclosures on a clear glass plate maintained at 30° C. A radiant heat source (a high-intensity projector lamp) was focused onto the plantar surface of the hindpaw. Activation of the heat source activated a timer, which stopped when withdrawal of the paw was detected with a photodetector. A maximal cut-off of 40 seconds (s) was utilized to prevent tissue damage.
Antinociception is expressed as the percent of the maximum possible effect (% MPE), using the formula: % MPE=(WL-CL)/(CO-CL), where WL is the withdrawal latency obtained experimentally, CL is the control (baseline) value before drug administration, and CO is the cut-off value (40 s). Dose-response curves were generated. Significance was defined as P<0.05.

[3] = rat forebrain membranes, 0.8 nM [3H]CP-55,940, read-out: Ki (nM) CB1

Compound | cannabinoid-like behaviour in the locomotor assay (rats [1]) | effect on locomotor activity (rats [1]) | Ki (CB1 receptor) [nM] | Ki (CB2 receptor) [nM] | antinociception to a thermal stimulus applied to the hindpaw (rats [2]) | Ki (CB1 receptor; [3]) [nM]
Cc1c(C(=O)c2cccc3ccccc23)c2cccc3c2n1[C@H](CN1CCOCC1)CO3 [WIN 55212-2, reference compound] | produced the typical cannabinoid-like catalepsy and inhibition of locomotion | significantly reduced locomotor activity |  |  |  | 
O=C(NC12CC3CC(CC(C3)C1)C2)c1nn(CCN2CCOCC2)c2ccccc12 [compound 1] |  |  | 6.84 | 0.147 |  | 
CN1CCCCC1Cn1nc(C(=O)NC23CC4CC(CC(C4)C2)C3)c2ccccc21 (stereo not drawn) [compound 2] |  |  | 47.5 | 8.74 |  | 
N#CCCCCn1nc(C(=O)NC23CC4CC(CC(C4)C2)C3)c2ccccc21 [compound 3] | produced the typical cannabinoid-like catalepsy and inhibition of locomotion | significantly reduced locomotor activity | 2.28 | 0.309 | produced dose-dependent antinociception | 
O=C(NC12CC3CC(CC(C3)C1)C2)c1nn(CCCCCl)c2ccccc12 [compound 4] |  |  | 1.65 | 1.34 |  | 
O=C(NC12CC3CC(CC(C3)C1)C2)c1nn(CCCCI)c2ccccc12 [compound 5] |  |  | 0.596 | 0.164 |  | 
CN(C)CCCn1nc(C(=O)NC23CC4CC(CC(C4)C2)C3)c2ccccc21 [compound 6] |  |  |  | 20.9 |  | 443
O=C(Nc1cccc2ccccc12)c1nn(CCCCCl)c2ccccc12 [compound 7] |  |  | 0.268 | 0.135 |  | 
O=C(Nc1cccc2ccccc12)c1nn(CCCCI)c2ccccc12 [compound 8] |  |  | 13.7 | 27 |  | 
CN(C)CCCn1nc(C(=O)Nc2cccc3ccccc23)c2ccccc21 [compound 9] |  |  |  | 235 |  | 451
CN1CCCCC1Cn1nc(C(=O)Nc2cccc3ccccc23)c2ccccc21 (stereo not drawn) [compound 10] |  |  | 15 | 8.04 |  | 
O=C(NN1CCCCC1)c1nn(-c2ccccc2)c2cc(Br)ccc12 [compound 11] |  |  |  | 84.7 |  | 1850
